# Test results as given in patent publication US9611263B2, “Compounds that modulate intracellular calcium” (CALCIMEDICA, INC., priority 2013, dated 2017).
# Where two headings read alike, the source gives them in different places.
# Tests used:
# Orai1/STIM1 = target: T1, Orai1/STIM1 (Homo sapiens, UniProt Q96D31); assay: Fluorescence-based assay of store-operated calcium entry in Orai1/STIM1 stable cells; format: cell-based; design: key to Orai1/STIM1 (IC50, μmol): A < 0.6 μmol; 0.6 μmol ≦ B ≦ 1.2 μmol; C > 1.2 μmol; — = no fit; conditions: HEK-293 cells stably expressing human STIM1 and Orai1, 50% inhibition of Peak-Basal fluorescence signal; for IC50: read-out: Orai1/STIM1 (IC50, μmol)
# T1 construct: expressed in transfected cells
# T1 sequence (Q96D31 whole entry): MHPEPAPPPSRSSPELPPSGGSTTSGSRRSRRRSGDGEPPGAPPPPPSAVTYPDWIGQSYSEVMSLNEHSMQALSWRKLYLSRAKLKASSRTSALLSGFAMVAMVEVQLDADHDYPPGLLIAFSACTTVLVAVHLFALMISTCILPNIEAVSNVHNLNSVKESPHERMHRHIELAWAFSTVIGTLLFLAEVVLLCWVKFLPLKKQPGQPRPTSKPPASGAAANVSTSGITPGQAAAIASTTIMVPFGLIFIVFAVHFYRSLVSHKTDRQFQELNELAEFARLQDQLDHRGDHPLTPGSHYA
# Procedure: A. Fluorescence-Based Assay of Store-Operated Calcium Entry in Orai1/STIM1 Stable Cells.
# Cells stably expressing recombinant human STIM1 and Orai1 are generated by transfecting a human Orai1 expression plasmid (pcDNA3.1-Orai1-cmyc) into HEK-293 cells stably overexpressing human STIM1 (Roos et al. 2005 JCB 169(3): 435-445). Colonies of cells stably expressing both STIM1 and Orai1 proteins are selected and then subcloned by limiting dilution. Cells were cultured at 37° C./6% CO2 in complete medium with 10% FBS and appropriate selection markers.
# The day prior to performing the assay Orai1/STIM1 stable cells are plated in 50 μL of complete medium at 90-95% confluence in a 384 well plate. Cells are grown at 37° C./6% CO2 overnight. On the day of the assay, 1.5 μM fluo-4-AM (Invitrogen) in complete medium is added to the cells, which are then incubated for 1 hour at RT. Cells are washed once in Ca^2+-free HBSS (Hank's buffered saline solution) and 35 μl of Ca^2+-free HBSS is added to each well. Test compounds are added to wells in a 10 μL Ca^2+-free HBSS solution, prepared at 4.5× the desired final concentration, and incubated for 30 minutes at RT. The initial baseline fluorescence signal is then measured with a FLIPR^384 (Molecular Devices) plate reader. Calcium entry is initiated by adding 5 μl of 10× CaCl2 (10 mM) in HBSS, and changes in cellular fluorescence are measured with the FLIPR^384 plate reader. In each well, the magnitude of the fluorescence signal as a result of calcium entry into the cell is determined by calculating the difference between the peak fluorescence signal measured after calcium addition and the initial baseline fluorescence signal (designated Peak-Basal). IC50 values are typically calculated as the concentration that inhibited 50% of the Peak-Basal signal.
# RBL-2H3 cells = assay: Fluorescence-based assay of store-operated calcium entry in RBL-2H3 cells; format: cell-based, rat; conditions: thapsigargin, 50% inhibition of Upslope, read-out: RBL-2H3 (IC50, μmol)
# Procedure: B. Fluorescence-Based Assay of Store-Operated Calcium Entry in RBL-2H3 Cells.
# RBL-2H3 cells are obtained from ATCC and maintained in complete medium with 10% FBS at 37° C./6% CO2.
# The day prior to performing the assay, RBL-2H3 cells are plated in 50 μL of complete medium in a 384 well plate. Cells are grown at 37° C./6% CO2 overnight and grow to 50-60% confluence by the next day. On the assay day, 1.5 μM Fluo-4-AM dye (Invitrogen) in complete medium is added and incubated for 1 hour at RT. Cells are washed twice in Ca^2+-free HBSS buffer and 35 μL Ca^2+-free HBSS buffer is added to each well. 10 μL of a test compound prepared in a Ca^2+-free HBSS solution at 4.5× of the desired concentration is added to a well and incubated for 5 minutes at RT. 10 μL of thapsigargin prepared in a Ca^2+-free HBSS solution at 5.5× of the desired concentration (5.5 uM) is added to each well and incubated for an additional 25 minutes. The initial baseline fluorescence signal is measured with a FLIPR^384 (Molecular Devices) plate reader. 5 μL of 12× calcium in HBSS (12 mM) is added and changes in cellular fluorescence are measured with the FLIPR^384 plate reader. In each well, the change in the fluorescent signal as a function of time due to calcium entry into the cell is determined by calculating the difference between the fluorescent signal measured 7 seconds after calcium addition and the initial baseline fluorescence signal at time zero (t=0). This parameter is designated Upslope. The IC50 value is calculated as the concentration at which 50% of the Upslope is inhibited.
IC50 (Orai1/STIM1) [µM],"IC50 (RBL-2H3 cells; Rattus norvegicus, RBL-2H3) [µM]",IC50 (RBL-2H3 cells) [µM],"Orai1/STIM1 (IC50, μmol) (Orai1/STIM1)",Compound
< 0.6,< 0.6,,,"CCc1nn(-c2nccs2)cc1-c1ccc(NC(=O)c2ccccc2F)s1 [Example 74, N-(5-(3-ethyl-1-(thiazol-2-yl)-1H-pyrazol-4-yl)thiophen-2-yl)-2-fluorobenzamide]"
> 1.2,< 0.6,,,"O=C(Nc1ccc(-c2cn(-c3nccs3)nc2C2CC2)c(F)c1)c1c(F)cccc1F [Example 41, N-(4-(3-cyclopropyl-1-(thiazol-2-yl)-1H-pyrazol-4-yl)-3-fluorophenyl)-2,6-difluorobenzamide]"
0.6 to 1.2,,< 0.6,,"N-(5-(3-ethyl-1-(thiazol-2-yl)-1H-pyrazol-4-yl)pyrazin-2-yl)-2,3,6-trifluorobenzamide [Example 39]"
< 0.6,< 0.6,,,"Cc1nn(-c2nccs2)cc1-c1cnc(NC(=O)c2c(F)cccc2F)cn1 [Example 24, 2,6-difluoro-N-(5-(3-methyl-1-(thiazol-2-yl)-1H-pyrazol-4-yl)pyrazin-2-yl)benzamide]"
< 0.6,< 0.6,,,"CCc1nn(-c2nccs2)cc1-c1ccc(NC(=O)c2c(F)cccc2F)nc1 [Example 35, N-(5-(3-ethyl-1-(thiazol-2-yl)-1H-pyrazol-4-yl)pyridin-2-yl)-2,6-difluorobenzamide]"
0.6 to 1.2,< 0.6,,,"CCc1nn(-c2nccs2)cc1-c1ccc(NC(=O)c2c(C)cccc2F)cc1 [Example 8, N-(4-(3-ethyl-1-(thiazol-2-yl)-1H-pyrazol-4-yl)phenyl)-2-fluoro-6-methylbenzamide]"
< 0.6,< 0.6,,,"Cc1nn(-c2nccs2)cc1-c1ccc(NC(=O)c2c(F)cccc2F)s1 [Example 69, 2,6-difluoro-N-(5-(3-methyl-1-(thiazol-2-yl)-1H-pyrazol-4-yl)thiophen-2-yl)benzamide]"
0.6 to 1.2,< 0.6,,,"CCc1nn(-c2nccs2)cc1-c1nnc(NC(=O)c2c(F)ccc(F)c2F)s1 [Example 68, N-(5-(3-ethyl-1-(thiazol-2-yl)-1H-pyrazol-4-yl)-1,3,4-thiadiazol-2-yl)-2,3,6-trifluorobenzamide]"
< 0.6,< 0.6,,,"Cc1nn(-c2nccs2)cc1-c1ccc(NC(=O)c2c(F)cccc2F)cc1 [Example 1, 2,6-difluoro-N-(4-(3-methyl-1-(thiazol-2-yl)-1H-pyrazol-4-yl)phenyl)benzamide]"
< 0.6,< 0.6,,,"Cc1cccc(F)c1C(=O)Nc1ccc(-c2cn(-c3ccccc3F)nc2C)cn1 [Example 59, 2-fluoro-N-(5-(1-(2-fluorophenyl)-3-methyl-1H-pyrazol-4-yl)pyridin-2-yl)-6-methylbenzamide]"
< 0.6,< 0.6,,,"O=C(Nc1cnc(-c2cn(-c3nccs3)nc2C2CC2)cn1)c1ccccc1F [Example 50, N-(5-(3-cyclopropyl-1-(thiazol-2-yl)-1H-pyrazol-4-yl)pyrazin-2-yl)-2-fluorobenzamide]"
< 0.6,< 0.6,,,"Cc1nn(-c2nccs2)cc1-c1ccc(NCc2c(F)cccc2F)cc1F [Example 75, N-(2,6-difluorobenzyl)-3-fluoro-4-(3-methyl-1-(thiazol-2-yl)-1H-pyrazol-4-yl)aniline]"
< 0.6,< 0.6,,,"Cc1nn(-c2cc(F)ccc2F)cc1-c1ccc(NC(=O)c2c(F)cccc2F)nc1 [Example 55, N-(5-(1-(2,5-difluorophenyl)-3-methyl-1H-pyrazol-4-yl)pyridin-2-yl)-2,6-difluorobenzamide]"
< 0.6,< 0.6,,,"CCc1nn(-c2nccs2)cc1-c1ccc(NC(=O)c2ccccc2F)cc1 [Example 7, N-(4-(3-ethyl-1-(thiazol-2-yl)-1H-pyrazol-4-yl)phenyl)-2-fluorobenzamide]"
0.6 to 1.2,< 0.6,,,"O=C(Nc1cnc(-c2cn(-c3nccs3)nc2C2CC2)cn1)c1c(F)cc(F)cc1F [Example 49, N-(5-(3-cyclopropyl-1-(thiazol-2-yl)-1H-pyrazol-4-yl)pyrazin-2-yl)-2,4,6-trifluorobenzamide]"
< 0.6,< 0.6,,,"Cc1nn(-c2ccccc2F)cc1-c1ccc(NC(=O)c2c(F)cccc2F)nc1 [Example 57, 2,6-difluoro-N-(5-(1-(2-fluorophenyl)-3-methyl-1H-pyrazol-4-yl)pyridin-2-yl)benzamide]"
> 1.2,< 0.6,,,"O=C(Nc1cnc(-c2cn(-c3nccs3)nc2C2CC2)cn1)c1c(F)cccc1F [Example 47, N-(5-(3-cyclopropyl-1-(thiazol-2-yl)-1H-pyrazol-4-yl)pyrazin-2-yl)-2,6-difluorobenzamide]"
,< 0.6,,—,"CC(C)(C)c1nn(-c2nccs2)cc1-c1ccc(NC(=O)c2c(F)cccc2F)nc1 [Example 54, N-(5-(3-tert-butyl-1-(thiazol-2-yl)-1H-pyrazol-4-yl)pyridin-2-yl)-2,6-difluorobenzamide]"
> 1.2,< 0.6,,,"CCc1nn(-c2nccs2)cc1-c1ccc(NC(=O)c2c(F)ccc(F)c2F)cc1F [Example 32, N-(4-(3-ethyl-1-(thiazol-2-yl)-1H-pyrazol-4-yl)-3-fluorophenyl)-2,3,6-trifluorobenzamide]"
0.6 to 1.2,< 0.6,,,"O=C(Nc1ccc(-c2cn(-c3nccs3)nc2C(F)(F)F)cn1)c1c(F)ccc(F)c1F [Example 53, 2,3,6-trifluoro-N-(5-(1-(thiazol-2-yl)-3-(trifluoromethyl)-1H-pyrazol-4-yl)pyridin-2-yl)benzamide]"
< 0.6,< 0.6,,,"CCc1nn(-c2nccs2)cc1-c1cnc(NC(=O)c2c(F)cccc2F)cn1 [Example 38, N-(5-(3-ethyl-1-(thiazol-2-yl)-1H-pyrazol-4-yl)pyrazin-2-yl)-2,6-difluorobenzamide]"
0.6 to 1.2,< 0.6,,,"Cc1cccc(F)c1C(=O)Nc1ccc(-c2cn(-c3nccs3)nc2C)s1 [Example 71, 2-fluoro-6-methyl-N-(5-(3-methyl-1-(thiazol-2-yl)-1H-pyrazol-4-yl)thiophen-2-yl)benzamide]"
0.6 to 1.2,> 1.2,,,"Cc1nn(-c2ccccc2F)cc1-c1ccc(NC(=O)c2ccccc2F)nc1 [Example 58, 2-fluoro-N-(5-(1-(2-fluorophenyl)-3-methyl-1H-pyrazol-4-yl)pyridin-2-yl)benzamide]"
< 0.6,< 0.6,,,"Cc1nn(-c2nccs2)cc1-c1ccc(NC(=O)c2c(F)ccc(F)c2F)nc1 [Example 20, 2,3,6-trifluoro-N-(5-(3-methyl-1-(thiazol-2-yl)-1H-pyrazol-4-yl)pyridin-2-yl)benzamide]"
0.6 to 1.2,< 0.6,,,"Cc1nn(-c2nccs2)cc1-c1ccc(NC(=O)c2ccccc2OC(F)F)cc1F [Example 17, 2-(difluoromethoxy)-N-(3-fluoro-4-(3-methyl-1-(thiazol-2-yl)-1H-pyrazol-4-yl)phenyl)benzamide]"
< 0.6,< 0.6,,,"Cc1cccc(F)c1C(=O)Nc1ccc(-c2cn(-c3nccs3)nc2C)cn1 [Example 19, 2-fluoro-6-methyl-N-(5-(3-methyl-1-(thiazol-2-yl)-1H-pyrazol-4-yl)pyridin-2-yl)benzamide]"
> 1.2,< 0.6,,,"O=C(Nc1cnc(-c2cn(-c3nccs3)nc2C2CC2)cn1)c1c(F)ccc(F)c1F [Example 48, N-(5-(3-cyclopropyl-1-(thiazol-2-yl)-1H-pyrazol-4-yl)pyrazin-2-yl)-2,3,6-trifluorobenzamide]"
